Consider 35 compounds from ChEMBL document CHEMBL1157845, “Structure-activity relationship of new anti-tuberculosis agents derived from oxazoline and oxazole benzyl esters” (Eur J Med Chem, 2010).

Values after ≈ are worked out from the molar mass of the structure shown. Active and inactive are the calls of the source. No rule for the calls is given here.

Assay [1] deals with Mycobacterium tuberculosis. The experiment in a line: Antimycobacterial activity against Mycobacterium tuberculosis Erdman infected in BALB/c mouse assessed as reduction of bacterial load at 200 mg/kg, po qd for 5 days per week administered 60 days after infection measured after 85 days post infection. It is filed as functional, organism-based. Set-up: dose 200 mg/kg.
In assay [2] the test system is Mycobacterium tuberculosis. The experiment in a line: Antimycobacterial activity against Mycobacterium tuberculosis H37Rv ATCC 27294 in GAS medium after 1 week by microplate alamar blue assay. It counts as functional. As to conditions: H37Rv ATCC 27294, 168 h. On the technique in general: Resazurin is reduced to fluorescent resorufin, in cell work by metabolically active cells.

Assay [3] concerns Mycobacterium tuberculosis. Briefly: Antimycobacterial activity against Mycobacterium tuberculosis H37Rv ATCC 27294 in GAST medium after 1 week by microplate alamar blue assay. It is filed as functional. As to conditions: H37Rv ATCC 27294, 168 h.
Assay [4] relates to Vero. The experiment in a line: Cytotoxicity against african green monkey Vero cells by colorimetric assay. It counts as cell-based. As to conditions: Chlorocebus sabaeus.
Assay [5] relates to Mycobacterium tuberculosis. Briefly: Antimycobacterial activity against Mycobacterium tuberculosis H37Rv ATCC 27294 incubated 10 days under anaerobic condition measured after 24 hrs recovery in air by luciferase based low oxygen recovery assay. It is filed as functional.

With `O=C(OCc1ccccc1)[C@@H]1COC(c2ccc([N+](=O)[O-])cc2)=N1`, in assay [1], the result was inactive. Besides, the MIC in assay [2] was determined as 30.6 µM (≈ 9.99 µg/mL); in assay [3], 7.59 µM (≈ 2.48 µg/mL). This compound displayed an IC50 in assay [4] of over 128 µM.

As for `O=C(OCc1ccccc1)[C@@H]1COC(c2ccc(OCc3ccccc3)c(F)c2)=N1`, in assay [1], the result was inactive. The minimum inhibitory concentration (MIC) in assay [2] amounted to 0.77 µM (≈ 0.312 µg/mL); in assay [3] it was 1.42 µM (≈ 0.576 µg/mL). In assay [4], this compound had an IC50 of over 128 µM.

As for `Cc1oc(-c2ccc(F)cc2[N+](=O)[O-])nc1C(=O)OCc1ccccc1`, the outcome in assay [1] was inactive. In addition, the MIC in assay [2] is 15 µM (≈ 5.34 µg/mL); in assay [3], 4.62 µM (≈ 1.65 µg/mL); in assay [5] it was over 128 µM. In addition, the IC50 in assay [4] is over 128 µM.

Consider `O=C(OCc1ccccc1)c1coc(-c2cncc(-c3ccccc3)c2)n1`, for which the outcome in assay [1] was inactive. The results for the MIC in assay [2] and in assay [3] were 1.49 µM (≈ 0.531 µg/mL) and 0.98 µM (≈ 0.349 µg/mL), respectively. The IC50 in assay [4] was over 128 µM.

For `CCOc1ccc(-c2nc(C(=O)OCc3ccccc3)co2)cc1`, the outcome in assay [1] was inactive. Also, the figures for the MIC in assay [2], in assay [3] and in assay [5] were 15.5 µM (≈ 5.01 µg/mL), 1.97 µM (≈ 0.637 µg/mL) and 29.7 µM (≈ 9.6 µg/mL), respectively. The same compound had an IC50 in assay [4] of over 128 µM.

For `O=C(OCc1ccccc1)c1coc(-c2ccc([N+](=O)[O-])c(F)c2)n1`, the result in assay [1] was inactive. The figures for the MIC in assay [2] and in assay [3] were 35.4 µM (≈ 12.1 µg/mL) and 2.66 µM (≈ 0.91 µg/mL), respectively. Moreover, in assay [4], the IC50 was over 128 µM.

Regarding `O=C(OCc1ccccc1)c1coc(-c2ccc(F)cc2[N+](=O)[O-])n1`, the outcome in assay [1] was inactive. For the same compound, the MIC in assay [2] came out at 2.4 µM (≈ 0.821 µg/mL); in assay [3], 9.9 µM (≈ 3.39 µg/mL). Besides, the IC50 in assay [4] was over 128 µM.

On to `COc1ccc(C2=N[C@H](C(=O)OCc3ccccc3)CO2)cc1`, for which, in assay [1], the outcome was inactive. The MIC in assay [2] was found to be 26.1 µM (≈ 8.13 µg/mL); in assay [3] it was 2.29 µM (≈ 0.713 µg/mL). The IC50 in assay [4] is over 128 µM.

For `Cc1oc(-c2ccccc2)nc1C(=O)OCc1ccccc1`, in assay [1], the outcome was inactive. The MIC in assay [2] is 3.92 µM (≈ 1.15 µg/mL); in assay [3], 15.2 µM (≈ 4.46 µg/mL); in assay [5], over 128 µM. This compound also came in with an IC50 in assay [4] of 35 µM.

On to `O=C(OCc1ccccc1)c1coc(-c2cncc(Br)c2)n1`, for which, in assay [1], the result was inactive. Besides, the results for the MIC in assay [2], in assay [3] and in assay [5] were 2.37 µM (≈ 0.851 µg/mL), 2.24 µM (≈ 0.805 µg/mL) and over 128 µM, respectively. In assay [4], this compound came in with an IC50 of over 128 µM.

In the case of `O=C(OCc1ccccc1)c1coc(-c2cccc(Cl)c2)n1`, the outcome in assay [1] was inactive. In addition, the MIC in assay [2] amounted to 1.25 µM (≈ 0.392 µg/mL); in assay [3], 0.99 µM (≈ 0.311 µg/mL). The IC50 in assay [4] is over 128 µM.

As to `COc1ccc(CNC(=O)c2coc(-c3ccc([N+](=O)[O-])cc3)n2)cc1OC`, in assay [1], the result was inactive. Also, the MIC is 35.8 µM (≈ 13.7 µg/mL) in assay [2] and 49.5 µM (≈ 19 µg/mL) in assay [3]. In assay [4], this compound returned an IC50 of over 128 µM.

Turning to `O=C(OCc1ccccc1)c1coc(-c2cccc(F)c2)n1`, the outcome in assay [1] was inactive. Further, the MIC in assay [2] was 0.91 µM (≈ 0.271 µg/mL); in assay [3] it was 1.42 µM (≈ 0.422 µg/mL). This compound gave an IC50 in assay [4] of over 128 µM.

As for `COc1ccc(-c2nc(C(=O)OCc3ccccc3)co2)cc1F`, the result in assay [1] was inactive. Besides, the values for the MIC in assay [2] and in assay [3] were 5.55 µM (≈ 1.82 µg/mL) and 6.99 µM (≈ 2.29 µg/mL), respectively. Moreover, in assay [4], the IC50 is over 128 µM.

As to `O=C(O)[C@@H]1COC(c2ccccc2)=N1`, the result in assay [1] was inactive. Moreover, the MIC in assay [2] and in assay [3] was over 128 µM in each case.

Turning to `COC(=O)[C@@H]1COC(c2ccccc2O)=N1`, the result in assay [1] was inactive. Further, the MIC in assay [2] and in assay [3] was over 128 µM throughout.

Consider `Cc1ccc(C2=N[C@H](C(=O)OCc3ccccc3)CO2)cn1`, for which, in assay [1], the result was inactive. Moreover, the MIC turned out to be 73 µM (≈ 21.6 µg/mL) in assay [2] and 122 µM (≈ 36.2 µg/mL) in assay [3].

Consider `O=C(OCc1ccccc1)[C@@H]1COC(c2cccc(Cl)c2)=N1`, for which the result in assay [1] was inactive. Moreover, the figures for the MIC in assay [2] and in assay [3] were 11.6 µM (≈ 3.66 µg/mL) and 1.8 µM (≈ 0.568 µg/mL), respectively. In assay [4], the IC50 is over 128 µM.

As to `C[C@@H]1OC(c2ccc(F)cc2[N+](=O)[O-])=N[C@@H]1C(=O)OCc1ccccc1`, in assay [1], the outcome was inactive. In addition, the MIC in assay [2] worked out at 12.5 µM (≈ 4.48 µg/mL); in assay [3], 4.11 µM (≈ 1.47 µg/mL). This compound yielded an IC50 in assay [4] of 38.1 µM.

With `COC(=O)[C@@H]1COC(c2cccc(Cl)c2)=N1`, the outcome in assay [1] was inactive. Besides, the MIC is over 128 µM in assay [2] and 68.7 µM (≈ 16.5 µg/mL) in assay [3].

In the case of `O=C(OCc1ccccc1)c1coc(-c2ccc([N+](=O)[O-])cc2OCc2ccccc2)n1`, the outcome in assay [1] was inactive. Moreover, the MIC in assay [2] and in assay [3] was over 128 µM throughout.

Consider `O=C(OCc1ccccc1)[C@@H]1COC(c2ccccn2)=N1`, for which the result in assay [1] was inactive. Besides, the MIC in assay [2] turned out to be 110 µM (≈ 31.1 µg/mL); in assay [3], 127 µM (≈ 35.9 µg/mL).

In the case of `Cc1oc(-c2ccccc2)nc1C(=O)O`, the result in assay [1] was inactive. For the same compound, the MIC in assay [2] and in assay [3] was over 128 µM throughout.

As for `COc1ccc(-c2nc(C(=O)OCc3ccccc3)co2)cc1OC`, in assay [1], the result was inactive. The MIC is 16 µM (≈ 5.43 µg/mL) in assay [2] and 17.5 µM (≈ 5.94 µg/mL) in assay [3].

`COc1cccc(-c2nc(C(=O)OCc3ccccc3)co2)c1`: the outcome in assay [1] was inactive. Moreover, the MIC was found to be 6.04 µM (≈ 1.87 µg/mL) in assay [2] and 3.76 µM (≈ 1.16 µg/mL) in assay [3].

Regarding `O=C(OCc1ccccc1)c1coc(-c2ccc([N+](=O)[O-])cc2)n1`, the outcome in assay [1] was inactive. Also, the values for the MIC in assay [2] and in assay [3] were 1.79 µM (≈ 0.58 µg/mL) and 42.3 µM (≈ 13.7 µg/mL), respectively.

For `O=C(OCc1ccccc1)[C@@H]1COC(c2cccc(F)c2)=N1`, the outcome in assay [1] was inactive. Further, the MIC stood at 60.7 µM (≈ 18.2 µg/mL) in assay [2] and 6.86 µM (≈ 2.05 µg/mL) in assay [3].

For `Cc1ccc(-c2nc(C(=O)OCc3ccccc3)co2)cn1`, the result in assay [1] was inactive. In addition, the values for the MIC in assay [2] and in assay [3] were 3.01 µM (≈ 0.886 µg/mL) and 10.2 µM (≈ 3 µg/mL), respectively.

For the compound `Cc1oc(-c2ccccc2OCc2ccccc2)nc1C(=O)OCc1ccccc1`, the outcome in assay [1] was inactive. Further, the MIC is 28.3 µM (≈ 11.3 µg/mL) in assay [2] and over 128 µM in assay [3]. Besides, the IC50 in assay [4] came to 110 µM.

For the compound `O=C(OCc1ccccc1)c1coc(-c2ccccc2P(=O)(c2ccccc2)c2ccccc2)n1`, the result in assay [1] was inactive. Also, the MIC was 61.8 µM (≈ 29.6 µg/mL) in assay [2] and 61.5 µM (≈ 29.5 µg/mL) in assay [3].

As for `O=C(OCc1ccccc1)c1coc(-c2cccnc2)n1`, the outcome in assay [1] was inactive. The MIC in assay [2] turned out to be 3.82 µM (≈ 1.07 µg/mL); in assay [3], 6.2 µM (≈ 1.74 µg/mL).

Take `O=C(OCc1ccccc1)c1coc(-c2cccc(Cl)c2OCc2ccccc2)n1`: the result in assay [1] was inactive. Moreover, the MIC in assay [2] is 5.4 µM (≈ 2.27 µg/mL); in assay [3], over 128 µM.

With `O=C(OCc1ccccc1)c1coc(-c2ccccn2)n1`, in assay [1], the outcome was inactive. For the same compound, the values for the MIC in assay [2] and in assay [3] were 2 µM (≈ 0.561 µg/mL) and 2.47 µM (≈ 0.692 µg/mL), respectively.

Consider `COC(=O)[C@@H]1COC(c2ccccc2OCc2ccccc2)=N1`, for which the outcome in assay [1] was inactive. Also, the MIC in assay [2] was 118 µM (≈ 36.7 µg/mL); in assay [3], over 128 µM.

As for `COc1ccc(-c2nc(C(=O)OCc3ccccc3)co2)cc1Cl`, the outcome in assay [1] was inactive. For the same compound, the MIC in assay [2] stood at 2.35 µM (≈ 0.808 µg/mL); in assay [3] it was 5.33 µM (≈ 1.83 µg/mL). In assay [4], this compound showed an IC50 of over 128 µM.

The term MIC denotes the lowest concentration found to suppress growth. As a reminder, the IC50 is the concentration at which inhibition is half-maximal.
